In US20250243180A1, “TARGETED PROTEIN DEGRADATION” (Monte Rosa Therapeutics AG, priority 2023, published 2025):
Read-outs that look alike come from different tables or passages of the source.

Tests used:
CRBN-DDB1 = CRBN-DDB1 (Homo sapiens (Human), UniProt Q96SW2); assay: Compound binding to CRBN by HTRF assay
Procedure, shortened: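 HTRF displacement of Cy5-thalidomide probe (100 nM) from His-tagged CRBN-DDB1 (2.5 nM) with anti-His terbium cryptate, in HEPES/NaCl/TCEP/EDTA/Tween20 buffer; 11-point 1:3 dilution series, 30 min at ambient temperature. Signal (665/620 nm) normalized to lenalidomide and DMSO controls; EC50 fitted, Ki by Cheng-Prusoff from geometric mean EC50.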

NEK7 = NEK7 (Homo sapiens (Human), UniProt Q8TDX7+Q96SW2); assay: NEK7 NanoBiT degradation assay in Cal51 NEK7 NanoBiT cell line; assay type: cell-based; details: Cal51 NEK7 NanoBiT cells, 24 hours; for Dmax: CAL-51
NEK7, sequence (Q8TDX7 whole entry): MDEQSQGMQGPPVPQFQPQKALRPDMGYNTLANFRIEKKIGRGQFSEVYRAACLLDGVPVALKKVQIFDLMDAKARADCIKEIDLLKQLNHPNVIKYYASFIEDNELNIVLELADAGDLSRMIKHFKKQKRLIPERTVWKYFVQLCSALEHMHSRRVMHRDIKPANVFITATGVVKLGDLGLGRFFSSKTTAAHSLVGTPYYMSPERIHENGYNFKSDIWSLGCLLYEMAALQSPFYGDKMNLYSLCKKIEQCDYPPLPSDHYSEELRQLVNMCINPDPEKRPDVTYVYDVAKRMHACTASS
NEK7, sequence (Q96SW2 whole entry): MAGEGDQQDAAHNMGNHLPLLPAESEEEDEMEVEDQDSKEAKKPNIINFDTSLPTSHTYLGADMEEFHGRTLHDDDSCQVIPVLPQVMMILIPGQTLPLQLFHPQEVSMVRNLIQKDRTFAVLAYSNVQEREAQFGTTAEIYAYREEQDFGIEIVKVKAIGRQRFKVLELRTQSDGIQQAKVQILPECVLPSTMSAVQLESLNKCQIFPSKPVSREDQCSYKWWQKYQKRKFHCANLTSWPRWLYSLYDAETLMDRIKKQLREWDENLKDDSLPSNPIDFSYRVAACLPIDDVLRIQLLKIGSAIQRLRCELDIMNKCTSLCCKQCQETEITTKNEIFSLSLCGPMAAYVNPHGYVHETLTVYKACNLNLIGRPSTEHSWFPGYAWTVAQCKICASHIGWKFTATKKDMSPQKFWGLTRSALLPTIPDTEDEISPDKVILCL
NEK7, sequence (Q16531 2-1140 partner): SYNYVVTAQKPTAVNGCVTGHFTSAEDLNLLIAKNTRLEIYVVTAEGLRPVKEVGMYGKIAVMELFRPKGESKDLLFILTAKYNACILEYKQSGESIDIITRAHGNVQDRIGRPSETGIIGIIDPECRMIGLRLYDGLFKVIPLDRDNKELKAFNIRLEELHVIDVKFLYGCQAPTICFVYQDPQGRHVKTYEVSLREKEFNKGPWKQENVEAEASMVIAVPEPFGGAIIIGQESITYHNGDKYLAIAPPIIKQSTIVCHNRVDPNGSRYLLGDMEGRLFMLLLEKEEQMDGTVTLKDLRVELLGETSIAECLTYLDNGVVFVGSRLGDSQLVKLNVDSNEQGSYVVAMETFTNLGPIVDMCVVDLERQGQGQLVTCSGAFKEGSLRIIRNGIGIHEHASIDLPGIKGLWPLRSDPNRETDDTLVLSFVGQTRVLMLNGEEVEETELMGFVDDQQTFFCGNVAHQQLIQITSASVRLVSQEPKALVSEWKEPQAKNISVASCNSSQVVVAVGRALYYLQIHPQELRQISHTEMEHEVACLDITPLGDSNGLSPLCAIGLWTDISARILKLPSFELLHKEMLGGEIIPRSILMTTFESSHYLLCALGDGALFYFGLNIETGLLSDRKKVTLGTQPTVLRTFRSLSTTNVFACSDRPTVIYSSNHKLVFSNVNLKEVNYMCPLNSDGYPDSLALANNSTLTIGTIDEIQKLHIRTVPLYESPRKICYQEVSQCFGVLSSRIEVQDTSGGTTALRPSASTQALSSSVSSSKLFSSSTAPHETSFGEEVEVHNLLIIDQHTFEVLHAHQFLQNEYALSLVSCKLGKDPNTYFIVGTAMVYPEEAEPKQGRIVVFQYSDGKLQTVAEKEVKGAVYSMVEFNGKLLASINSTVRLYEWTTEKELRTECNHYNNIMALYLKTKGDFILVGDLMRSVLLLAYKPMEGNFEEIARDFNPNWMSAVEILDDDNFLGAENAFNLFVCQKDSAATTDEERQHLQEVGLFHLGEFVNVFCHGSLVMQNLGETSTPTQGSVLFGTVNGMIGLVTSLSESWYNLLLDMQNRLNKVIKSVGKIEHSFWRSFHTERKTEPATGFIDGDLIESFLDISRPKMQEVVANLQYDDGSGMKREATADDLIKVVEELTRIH
Procedure, shortened: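 Cal51 cells with CRISPR knock-in HiBiT-tagged endogenous NEK7 plus stable LgBiT, in live-cell Endurazine medium, seeded 16 h before dosing. Compounds at final 1 μM to 0.05 nM for 24 h at 37 °C, then luminescence read. Response normalized to plate controls and fitted with a 4-parameter logistic giving EC50.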

[1] = NEK7 degradation, read-out: NanoBiT Dmax
[2] = NEK7 degradation, read-out: NanoBiT DC50

CRBN-DDB1, sequence (Q96SW2 whole entry): as the sequence (Q96SW2 whole entry) above
CRBN-DDB1, sequence (Q16531 whole entry partner): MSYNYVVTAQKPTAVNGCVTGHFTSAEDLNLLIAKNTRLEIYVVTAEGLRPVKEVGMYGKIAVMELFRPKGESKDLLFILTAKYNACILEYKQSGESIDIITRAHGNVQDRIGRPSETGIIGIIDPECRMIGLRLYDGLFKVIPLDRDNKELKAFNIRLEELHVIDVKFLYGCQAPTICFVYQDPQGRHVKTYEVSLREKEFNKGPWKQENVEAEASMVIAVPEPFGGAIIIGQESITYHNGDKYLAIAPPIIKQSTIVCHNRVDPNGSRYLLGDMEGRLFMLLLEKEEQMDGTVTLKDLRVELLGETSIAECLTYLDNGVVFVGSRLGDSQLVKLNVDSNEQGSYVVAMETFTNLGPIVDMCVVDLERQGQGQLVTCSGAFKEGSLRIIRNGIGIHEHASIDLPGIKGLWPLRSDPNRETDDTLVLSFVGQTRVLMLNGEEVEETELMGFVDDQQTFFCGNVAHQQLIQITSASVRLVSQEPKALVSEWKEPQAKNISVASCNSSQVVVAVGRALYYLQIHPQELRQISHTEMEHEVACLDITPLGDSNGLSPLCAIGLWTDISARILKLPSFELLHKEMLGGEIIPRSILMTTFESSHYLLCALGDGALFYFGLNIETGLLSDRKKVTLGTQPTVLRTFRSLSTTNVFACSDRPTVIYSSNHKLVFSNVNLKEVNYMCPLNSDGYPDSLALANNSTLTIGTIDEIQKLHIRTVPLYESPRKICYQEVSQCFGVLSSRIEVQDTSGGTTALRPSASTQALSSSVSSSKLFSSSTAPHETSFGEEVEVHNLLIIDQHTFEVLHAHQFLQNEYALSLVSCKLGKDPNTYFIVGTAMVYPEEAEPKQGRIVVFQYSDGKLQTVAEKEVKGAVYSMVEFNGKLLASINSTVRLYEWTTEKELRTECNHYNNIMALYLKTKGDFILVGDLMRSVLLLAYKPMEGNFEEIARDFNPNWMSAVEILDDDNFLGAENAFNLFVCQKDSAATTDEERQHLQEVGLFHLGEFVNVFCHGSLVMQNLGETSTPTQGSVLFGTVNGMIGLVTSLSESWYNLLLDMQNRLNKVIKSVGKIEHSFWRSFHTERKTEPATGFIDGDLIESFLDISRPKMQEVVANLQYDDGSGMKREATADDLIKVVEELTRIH

| Structure (SMILES) | EC50 (CRBN-DDB1) | EC50 (CRBN-DDB1; HTRF class, Cereblon binding) | Dmax (NEK7; read-out: NEK7 NanoBiT Dmax) | Dmax (NEK7; [1]) | DC50 (NEK7; read-out: NEK7 NanoBiT DC50) | DC50 (NEK7; [2]) |
| --- | --- | --- | --- | --- | --- | --- |
| O=C1CCC(c2c(Cl)cc(CNC(=O)C3(c4ccc(F)cc4)CC(F)(F)C3)cc2Cl)C(=O)N1 (stereo not drawn) [Compound 139, N-(3,5-dichloro-4-(2,6-dioxopiperidin-3-yl)benzyl)-3,3-difluoro-1-(4-fluorophenyl)cyclobutane-carboxamide] | 40 nM | ≤ 100 nM | 90% | > 75% | 8 nM | ≤ 100 nM |
| O=C1CCC(c2c(Cl)cc(CNC(=O)C3(c4ccc(F)cc4)CCOC3)cc2Cl)C(=O)N1 (stereo not drawn) [Compound 141] | 20 nM | ≤ 100 nM | 91% | > 75% | 6 nM | ≤ 100 nM |
| O=C1CCC(c2c(Cl)cc(CNC(=O)C3(c4ccncc4)CCCC3)cc2Cl)C(=O)N1 (stereo not drawn) [Compound 143, N-(3,5-dichloro-4-(2,6-dioxopiperidin-3-yl)benzyl)-1-(pyridin-4-yl)cyclopentane-1-carboxamide] | 40 nM | ≤ 100 nM | 92% | > 75% | 3 nM | ≤ 100 nM |
| O=C1CCC(c2c(Cl)cc(CNC(=O)C3(c4ccncc4)CCC3)cc2Cl)C(=O)N1 (stereo not drawn) [Compound 144] | 50 nM | ≤ 100 nM | 78% | > 75% | 6 nM | ≤ 100 nM |
| Cc1cc(C(C)(C)C(=O)NCc2cc(Cl)c(C3CCC(=O)NC3=O)c(Cl)c2)no1 (stereo not drawn) [Compound 145] | 430 nM | 100 to 1000 nM | 86% | > 75% | 10 nM | ≤ 100 nM |
| CC(C)(O)c1cnc(C(C)(C)C(=O)NCc2cc(Cl)c(C3CCC(=O)NC3=O)c(Cl)c2)nc1 (stereo not drawn) [Compound 147] | 550 nM | 100 to 1000 nM | 52% | 50 to 75% | 776 nM | 100 to 1000 nM |
| Cc1nccc(C(C)(C)C(=O)NCc2cc(Cl)c(C3CCC(=O)NC3=O)c(Cl)c2)n1 (stereo not drawn) [Compound 150] | 150 nM | 100 to 1000 nM | 53% | 50 to 75% | 91 nM | ≤ 100 nM |
| CC(C)(C(=O)NCc1cc(Cl)c(C2CCC(=O)NC2=O)c(Cl)c1)c1cc(C2CC2)ncn1 (stereo not drawn) [Compound 151] | 480 nM | 100 to 1000 nM | 60% | 50 to 75% | 88 nM | ≤ 100 nM |
| CC(C)(C(=O)NCc1cc(Cl)c(C2CCC(=O)NC2=O)c(Cl)c1)c1ccnc(C(F)F)n1 (stereo not drawn) [Compound 156, N-(3,5-dichloro-4-(2,6-dioxopiperidin-3-yl)benzyl)-2-(2-(difluoromethyl)pyrimidin-4-yl)-2-methylpropanamide] | 330 nM | 100 to 1000 nM | 54% | 50 to 75% | 435 nM | 100 to 1000 nM |
| CC(C)(C(=O)NCc1cc(Cl)c(C2CCC(=O)NC2=O)c(Cl)c1)c1cc(C(F)F)ncn1 (stereo not drawn) [Compound 159] | 280 nM | 100 to 1000 nM | 79% | > 75% | 28 nM | ≤ 100 nM |
| Cc1ccnc(C(C)(C)C(=O)NCc2cc(Cl)c(C3CCC(=O)NC3=O)c(Cl)c2)n1 (stereo not drawn) [Compound 160] | 200 nM | 100 to 1000 nM | 76% | > 75% | 34 nM | ≤ 100 nM |
| Cc1cnc(C(C)(C)C(=O)NCc2cc(Cl)c(C3CCC(=O)NC3=O)c(Cl)c2)o1 (stereo not drawn) [Compound 163] | 250 nM | 100 to 1000 nM | 80% | > 75% | 18 nM | ≤ 100 nM |
| CC(C)(C(=O)NCc1cc(Cl)c(C2CCC(=O)NC2=O)c(Cl)c1)c1ncc(N2CCC2)cn1 (stereo not drawn) [Compound 165] | 170 nM | 100 to 1000 nM | 69% | 50 to 75% | 47 nM | ≤ 100 nM |
| CC(C)(C(=O)NCc1cc(Cl)c(C2CCC(=O)NC2=O)c(Cl)c1)N1CCc2ccccc21 (stereo not drawn) [Compound 166, N-(3,5-dichloro-4-(2,6-dioxopiperidin-3-yl)benzyl)-2-(indolin-1-yl)-2-methylpropanamide] | 90 nM | ≤ 100 nM | 56% | 50 to 75% | 203 nM | 100 to 1000 nM |
| CC(C)(C(=O)NCc1cc(Cl)c(C2CCC(=O)NC2=O)c(Cl)c1)c1nc2ccccc2o1 (stereo not drawn) [Compound 167] | 90 nM | ≤ 100 nM | 96% | > 75% | 1 nM | ≤ 100 nM |
| CC(C)(C(=O)NCc1cc(Cl)c(C2CCC(=O)NC2=O)c(Cl)c1)c1nccc(C2CC2)n1 (stereo not drawn) [Compound 168] | 150 nM | 100 to 1000 nM | 57% | 50 to 75% | 137 nM | 100 to 1000 nM |
| O=C1CCC(c2c(Cl)cc(CNC(=O)C3(c4ncccn4)CCC3)cc2Cl)C(=O)N1 (stereo not drawn) [Compound 169, N-(3,5-dichloro-4-(2,6-dioxopiperidin-3-yl)benzyl)-1-(pyrimidin-2-yl)cyclobutane-1-carboxamide] | 180 nM | 100 to 1000 nM | 75% | 50 to 75% | 42 nM | ≤ 100 nM |
| CC(C)(C(=O)NCc1cc(Cl)c(C2CCC(=O)NC2=O)c(Cl)c1)N1Cc2ccccc2C1 (stereo not drawn) [Compound 170, N-(3,5-dichloro-4-(2,6-dioxopiperidin-3-yl)benzyl)-2-(isoindolin-2-yl)-2-methylpropanamide] | 180 nM | 100 to 1000 nM | 73% | 50 to 75% | 55 nM | ≤ 100 nM |
| CC(C)(C(=O)NCc1cc(Cl)c(C2CCC(=O)NC2=O)c(Cl)c1)c1cccc2ocnc12 (stereo not drawn) [Compound 171] | 120 nM | 100 to 1000 nM | 90% | > 75% | 7 nM | ≤ 100 nM |
| CC(C)(C(=O)NCc1cc(Cl)c(C2CCC(=O)NC2=O)c(Cl)c1)c1nccc(C(F)(F)F)n1 (stereo not drawn) [Compound 174] | 180 nM | 100 to 1000 nM | 77% | > 75% | 30 nM | ≤ 100 nM |
| CC(C)(C(=O)NCc1cc(Cl)c(C2CCC(=O)NC2=O)c(Cl)c1)c1ncc(C(F)(F)F)cn1 (stereo not drawn) [Compound 175] | 280 nM | 100 to 1000 nM | 94% | > 75% | 6 nM | ≤ 100 nM |

Other lines, results leading:

| EC50 (CRBN-DDB1) | EC50 (CRBN-DDB1; HTRF class, Cereblon binding) | Dmax (NEK7; read-out: NEK7 NanoBiT Dmax) | Dmax (NEK7; [1]) | DC50 (NEK7; read-out: NEK7 NanoBiT DC50) | DC50 (NEK7; [2]) | Structure (SMILES) |
| --- | --- | --- | --- | --- | --- | --- |
| 90 nM | ≤ 100 nM | 89% | > 75% | 14 nM | ≤ 100 nM | O=C1CCC(c2c(Cl)cc(CNC(=O)C3(c4ccc(F)cc4)COC3)cc2Cl)C(=O)N1 (stereo not drawn) [Compound 140] |
| 50 nM | ≤ 100 nM | 94% | > 75% | 3 nM | ≤ 100 nM | O=C1CCC(c2c(Cl)cc(CNC(=O)C3(c4ccc(F)cc4)CCOCC3)cc2Cl)C(=O)N1 (stereo not drawn) [Compound 142] |
| 180 nM | 100 to 1000 nM | 91% | > 75% | 5 nM | ≤ 100 nM | CC(C)(C(=O)NCc1cc(Cl)c(C2CCC(=O)NC2=O)c(Cl)c1)c1cc2ocnc2cn1 (stereo not drawn) [Compound 146] |
| 150 nM | 100 to 1000 nM | 58% | 50 to 75% | 176 nM | 100 to 1000 nM | Cn1cccc(C(C)(C)C(=O)NCc2cc(Cl)c(C3CCC(=O)NC3=O)c(Cl)c2)c1=O (stereo not drawn) [Compound 148, N-(3,5-dichloro-4-(2,6-dioxopiperidin-3-yl)benzyl)-2-methyl-2-(1-methyl-2-oxo-1,2-dihydropyridin-3-yl)propanamide] |
| 130 nM | 100 to 1000 nM | 85% | > 75% | 12 nM | ≤ 100 nM | CC(C)(C(=O)NCc1cc(Cl)c(C2CCC(=O)NC2=O)c(Cl)c1)c1cc(F)ccn1 (stereo not drawn) [Compound 149] |
| 190 nM | 100 to 1000 nM | 60% | 50 to 75% | 178 nM | 100 to 1000 nM | CC(C)(C(=O)NCc1cc(Cl)c(C2CCC(=O)NC2=O)c(Cl)c1)c1cc(C#N)ccn1 (stereo not drawn) [Compound 157] |
| 320 nM | 100 to 1000 nM | 91% | > 75% | 8 nM | ≤ 100 nM | Cc1cncnc1C(C)(C)C(=O)NCc1cc(Cl)c(C2CCC(=O)NC2=O)c(Cl)c1 (stereo not drawn) [Compound 158] |
| 230 nM | 100 to 1000 nM | 69% | 50 to 75% | 54 nM | ≤ 100 nM | CC(C)(C(=O)NCc1cc(Cl)c(C2CCC(=O)NC2=O)c(Cl)c1)c1cnccn1 (stereo not drawn) [Compound 161] |
| 240 nM | 100 to 1000 nM | 68% | 50 to 75% | 66 nM | ≤ 100 nM | Cc1noc(C(C)(C)C(=O)NCc2cc(Cl)c(C3CCC(=O)NC3=O)c(Cl)c2)n1 (stereo not drawn) [Compound 164] |
| 190 nM | 100 to 1000 nM | 97% | > 75% | 2 nM | ≤ 100 nM | Cn1c(F)cc(C(C)(C)C(=O)NCc2cc(Cl)c(C3CCC(=O)NC3=O)c(Cl)c2)cc1=O (stereo not drawn) [Compound 172] |
| 230 nM | 100 to 1000 nM | 85% | > 75% | 19 nM | ≤ 100 nM | Cc1cc(C(C)(C)C(=O)NCc2cc(Cl)c(C3CCC(=O)NC3=O)c(Cl)c2)ncn1 (stereo not drawn) [Compound 173] |
